Reference: patent US20140242609A1, “Diagnosis and treatment of kidney stones, methods and compositions therefor” (Washington University, priority 2013, published 2014)
“Also recorded” adds a separate entry of the source.

How the values were obtained:
PTH = test: plasma PTH levels after NPS2143 or cinacalcet; format: in vivo, mouse; settings: for Plasma PTH level, course: 8 hrs versus 2 hr; for PTH response: cyclosporine-A pre-treated
pri-miR-9-2 = pri-miR-9-2 transcript levels in TALH of treated mouse kidneys (real-time PCR); format: in vivo; settings: 30 mg/kg BW−1; 2 hrs or 8 hrs
Text: (§1) Total RNA including microRNA was extracted using Trizol (Invitrogen). Cellular mRNA was reverse transcribed using the Superscript-III kit (Invitrogen), followed by real-time PCR amplification using SYBR Green PCR Master Mix (Bio-Rad) and Eppendorf Realplex2S system. The design of claudin-14 primers was described above. The design of pri-miRNA primers was according to Ma et al., (2010). Results were expressed as 2^−ΔCt values with ΔCT=Ctgene−Ctβ-actin.
(§2) To measure the transcriptional level for microRNA gene in vivo in the kidney, the inventors designed primers (see Methods; Table 2) to amplify the pri-miRNA molecule, the original transcript for microRNA gene that had not yet been subjected to any nuclear or cellular processing. Because both miR-9 and miR-374 had broader localization profiles along the nephron, the inventors isolated the TALH tubular cells for pri-miRNA analyses from the mouse kidney described elsewhere in this study. WT mice (strain: C57BL/6) were treated with NPS2143 or cinacalcet as described for claudin-14 analyses and assayed for pri-miRNA levels in isolated TALH cells at 2 hrs and 8 hrs respectively. […] NPS2143 and cinacalcet also profoundly regulated pri-miR-374. […]
(§3) Total RNA including microRNA was extracted using Trizol (Invitrogen). […] Results were expressed as 2^−ΔCt values with ΔCT=Ctgene−Ctβ-actin.

pri-miR-9-3 = pri-miR-9-3 transcript levels in TALH of treated mouse kidneys (real-time PCR); format: in vivo; settings: 30 mg/kg BW−1; 2 hrs or 8 hrs
Text: as §1, §2, §3

claudin-14 protein = test: claudin-14 immunostaining, tight junction localization in mouse kidney sections; format: in vivo; settings: 30 mg/kg BW−1
Procedure: For viewing claudin localization in the kidney, fresh cryostat sections (10 μm) were fixed with cold methanol at −20° C., followed by blocking with PBS containing 10% FBS, incubation with primary antibody (1:300) and FITC-labeled secondary antibody (1:200). After washing with PBS, slides were mounted with Mowiol (Calbiochem). Epifluorescence images were taken with a Nikon 80i photomicroscope equipped with a DS-QilMc digital camera. All images were converted to TIFF format and arranged using Photoshop CS4 (Adobe).
For viewing claudin localization in the kidney, fresh cryostat sections (10 μm) were fixed with cold methanol at −20° C., followed by blocking with PBS containing 10% FBS, incubation with primary antibody (1:300) and FITC-labeled secondary antibody (1:200). After washing with PBS, slides were mounted with Mowiol (Calbiochem). Epifluorescence images were taken with a Nikon 80i photomicroscope equipped with a DS-Qi1Mc digital camera. All images were converted to TIFF format and arranged using Photoshop CS4 (Adobe).

[1] = 1 hr renal clearance measurements (FITC-inulin), plasma and urine electrolytes; format: in vivo, mouse
Procedure: (§4) The method for performing renal clearance measurements in the mouse has been described by Hou et al., (2007; 2009). Mice were anesthetized by i.p. injection of Inactin (Sigma; 100 mg/kg). The jugular vein was catheterized for i.v. infusion of 0.9% saline at 2 μL/min, with 1% FITC-inulin included in the infusate. After an equilibration period of 60 min, renal clearance measurements were carried out for a 60 min period. Urine was collected under mineral oil, and 30 μL blood sample was taken at hourly intervals. Urine and plasma Ca^2+ and Mg^2+ concentrations were measured by atomic flame absorption spectrophotometer (PerkinElmer). Urine and plasma FITC-inulin levels were measured in 100 mM HEPES buffer (pH7.0) with fluorescence spectrophotometer (BioTek). The fractional excretion of electrolytes was calculated using the following equation FEion=V×Uion/(GFR×Pion), where GFR was calculated according to the clearance rate of FITC-inulin (GFR=V×Uinulin/Pinulin).
as §4, with “Hou, J.,” for “Hou”, “2007 and Hou, J., et al., 2009.” for “(2007; 2009).”, “(Sigma:” for “(Sigma;”, “Ca^++” for “Ca^2+”, “Mg^++” for “Mg^2+”, “(PerkinEhner).” for “(PerkinElmer).”

[2] = WT, at both 2 hrs and 8 hrs, 30 mg/kg BW−1, versus vehicle
[3] = WT + CsA (25 mg/kg BW−1 per day, 6 days), 2 hr, Veh = CsA alone
[4] = WT, 2 hr, single dose 30 mg/kg BW−1
[5] = WT, 2 hr, single dose 30 mg/kg BW−1, 30 mg/kg
[6] = WT, 2 hr, single dose 30 mg/kg BW−1, listed as NPS, 30 mg/kg
[7] = WT, 8 hr, single dose 30 mg/kg BW−1
[8] = claudin-14 KO, 2 hr, single dose 30 mg/kg BW−1
[9] = WT, 2 hr, single dose 30 mg/kg BW−1, listed as Cina, 30 mg/kg

Row | Structure (SMILES) | Plasma PTH level, course (PTH; WT) | plasma PTH levels (PTH; [2]) | plasma PTH levels (PTH; claudin-14 KO animals, 2 hrs) | PTH response (PTH; 2 hrs) | pri-miR-9-2 level, change (pri-miR-9-2) | pri-miR-9-3 level, change (pri-miR-9-3) | claudin-14 staining in tight junctions of TALH tubules (claudin-14 protein) | ECa [1, 3] | FECa (fractional excretion of Ca++) [1, 3] | FEMg (fractional excretion of Mg++) [1, 3] | PCa (plasma Ca++ concentration) [1, 3] | PMg (plasma Mg++ concentration) [1, 3] | ECa [1, 4] | EMg [1, 4] | FEMg (fractional excretion of Mg++) [1, 4] | PMg (plasma Mg++ concentration) [1, 4] | FECa (fractional excretion of Ca++) [1, 5] | PCa (plasma Ca++ concentration) [1, 5] | ECa [1, 7] | EMg [1, 7] | other results
1 | CC(C)(Cc1ccc2ccccc2c1)NC[C@@H](O)COc1cccc(Cl)c1C#N [NPS2143] | started to return towards baseline | significantly affected | significant increases in plasma PTH levels | intact PTH response | Neither pri-miR-9-2 (FIG. 12B) nor pri-miR-9-3 level (FIG. 12C) was significantly altered; also recorded: Neither pri-miR-9-2 (FIG. 29B) nor pri-miR-9-3 level (FIG. 29C) was significantly altered | Neither pri-miR-9-2 (FIG. 12B) nor pri-miR-9-3 level (FIG. 12C) was significantly altered; also recorded: Neither pri-miR-9-2 (FIG. 29B) nor pri-miR-9-3 level (FIG. 29C) was significantly altered | reduced the staining signal for claudin-14 to punctate foci; also recorded: reduced the staining signal for claudin-14 to punctuate foci | 0.38 ± 0.02 ug/hr · g | 0.95 ± 0.14% | 11.96 ± 2.27% | 10.50 ± 0.18 mg/dL | 1.67 ± 0.02 mg/dL | 0.06 ± 0.01 ug/hr · g | 1.04 ± 0.06 ug/hr · g | 7.59 ± 0.32 % | 2.74 ± 0.15 mg/dL | 0.09±0.01% | 11.15 ± 0.21 mg/dL | 0.25 ± 0.04 ug/hr · g | 1.41 ± 0.18 ug/hr · g | EMg [1, 3]: 0.80 ± 0.19 ug/hr · g; FECa (fractional excretion of Ca++) [1, 6]: 0.09 ± 0.01 %; PCa (plasma Ca++ concentration) [1, 6]: 11.15 ± 0.21 mg/dL; FECa (fractional excretion of Ca++) [1, 7]: 0.58 ± 0.11%; FEMg (fractional excretion of Mg++) [1, 7]: 14.88 ± 2.63%; PCa (plasma Ca++ concentration) [1, 7]: 10.63 ± 0.43 mg/dL; PMg (plasma Mg++ concentration) [1, 7]: 2.37 ± 0.09 mg/dL; ECa [1, 8]: 0.25 ± 0.09 ug/hr · g; EMg [1, 8]: 1.02 ± 0.12 ug/hr · g; FECa (fractional excretion of Ca++) [1, 8]: 0.74 ± 0.26%; FEMg (fractional excretion of Mg++) [1, 8]: 10.71 ± 2.16%; PCa (plasma Ca++ concentration) [1, 8]: 10.22 ± 0.30 mg/dL; PMg (plasma Mg++ concentration) [1, 8]: 2.88 ± 0.12 mg/dL
2 | C[C@@H](NCCCc1cccc(C(F)(F)F)c1)c1cccc2ccccc12 [cinacalcet] | continued to suppress plasma PTH levels | significantly affected | suppressed PTH levels | intact PTH response | Neither pri-miR-9-2 (FIG. 12B) nor pri-miR-9-3 level (FIG. 12C) was significantly altered; also recorded: Neither pri-miR-9-2 (FIG. 29B) nor pri-miR-9-3 level (FIG. 29C) was significantly altered | Neither pri-miR-9-2 (FIG. 12B) nor pri-miR-9-3 level (FIG. 12C) was significantly altered; also recorded: Neither pri-miR-9-2 (FIG. 29B) nor pri-miR-9-3 level (FIG. 29C) was significantly altered | profoundly upregulated claudin-14 protein levels in the tight junction | 0.79 ± 0.07 ug/hr · g | 1.93 ± 0.20 % | 14.47 ± 1.13% | 8.09 ± 0.32 mg/dL | 1.58 ± 0.04 mg/dL | 1.33 ± 0.13 ug/hr · g | 2.32 ± 0.26 ug/hr · g | 28.14 ± 2.93 % | 1.96 ± 0.04 mg/dL | 3.82±0.52% | 8.44 ± 0.27 mg/dL | 0.22 ± 0.02 ug/hr · g | 1.25 ± 0.09 ug/hr · g | FECa (fractional excretion of Ca++) [1, 9]: 3.82 ± 0.52 %; PCa (plasma Ca++ concentration) [1, 9]: 8.44 ± 0.27 mg/dL; FECa (fractional excretion of Ca++) [1, 7]: 0.88 ± 0.14%; FEMg (fractional excretion of Mg++) [1, 7]: 18.80 ± 1.48%; PCa (plasma Ca++ concentration) [1, 7]: 9.58 ± 0.21 mg/dL; PMg (plasma Mg++ concentration) [1, 7]: 2.44 ± 0.16 mg/dL; ECa [1, 8]: 0.31 ± 0.03 ug/hr · g; EMg [1, 8]: 1.12 ± 0.03 ug/hr · g; FECa (fractional excretion of Ca++) [1, 8]: 1.08 ± 0.26%; FEMg (fractional excretion of Mg++) [1, 8]: 12.35 ± 2.21%; PCa (plasma Ca++ concentration) [1, 8]: 8.47 ± 0.09 mg/dL; PMg (plasma Mg++ concentration) [1, 8]: 2.64 ± 0.10 mg/dL; cinacalcet induced hypercalciuria, level higher than vehicle ([1]; cyclosporine-A pre-treated animals, 2 hrs): 1.93 fold
